Experimental data: PubChem BioAssay (NCI)
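GI50 is the concentration that inhibits growth by half. TGI: concentration producing complete growth inhibition.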

Tests used:
Test in all cases: NCI anticancer screen, dose series, 384-well format
[1] = system: CCRF-CEM leukemia
[2] = system: K-562 leukemia
[3] = system: M14 melanoma
[4] = system: MCF7 breast
[5] = system: MDA-MB-231 breast
[6] = system: NCI-H23 lung
[7] = system: OVCAR-5 ovarian
[8] = system: SF-295 CNS
[9] = system: SF-539 CNS
[10] = system: SK-OV-3 ovarian
[11] = system: SNB-19 CNS
[12] = system: T-47D breast
[13] = system: UACC-257 melanoma

SMILES: COCCOc1cc(F)c2c(Nc3ccc(NC(=O)Cn4cc(C(C)C)nn4)cc3)ncnc2c1
- GI50 [1]: 7.64 µM
- TGI [1]: 37.9 µM
- GI50 [2]: 3.25 µM
- TGI [2]: > 100 µM
- GI50 [3]: 59 µM
- TGI [3]: > 100 µM
- GI50 [4]: 21.9 µM
- TGI [4]: > 100 µM
- GI50 [5]: 30.5 µM
- TGI [5]: > 100 µM
- GI50 [6]: 35.6 µM
- TGI [6]: > 100 µM
- GI50 [7]: 87.8 µM
- TGI [7]: > 100 µM
- GI50 [8]: > 100 µM
- TGI [8]: > 100 µM
- GI50 [9]: 11.6 µM
- TGI [9]: > 100 µM
- GI50 [10]: 86.1 µM
- TGI [10]: > 100 µM
- GI50 [11]: > 100 µM
- TGI [11]: > 100 µM
- GI50 [12]: 5.9 µM
- TGI [12]: > 100 µM
- GI50 [13]: 60.6 µM
- TGI [13]: > 100 µM
